Measured values reported in ChEMBL document CHEMBL1201862, “PubChem BioAssay data set” (2004).
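Each compound was tested at five concentrations against cells in 96-well plates for 48 hours. GI50 = concentration required for 50% inhibition of growth.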 Activity calls are given as the source filed them. No stated cut-off is given here; in the data, active = GI50 up to about 1.1 µM and inactive = higher.

Legend:
Assay in all cases: inhibition of tumour cell growth, NCI panel, 48 h
A549 = tested on: A549
RXF 393 = tested on: RXF 393
SK-OV-3 = tested on: SK-OV-3
NCI-H23 = tested on: NCI-H23
MDA-MB-231 = tested on: MDA-MB-231
MOLT-4 = tested on: MOLT-4
SNB-19 = tested on: SNB-19
HOP-62 = tested on: HOP-62
HCT-15 = tested on: HCT-15
DU-145 = tested on: DU-145
CAKI-1 = tested on: CAKI-1
NCI-H226 = tested on: NCI-H226
SK-MEL-28 = tested on: SK-MEL-28
SK-MEL-5 = tested on: SK-MEL-5
OVCAR-8 = tested on: OVCAR-8
A498 = tested on: A498
M14 = tested on: M14
NCI/ADR-RES = tested on: NCI/ADR-RES
MDA-MB-435 = tested on: MDA-MB-435
NCI-H460 = tested on: NCI-H460

Measured: GI50

COC(=O)c1c2c(cc3c1CC1(Cc4ccccc4C1=O)C3)CCC2 (stereo not given)
21.4 µM: HCT-15
inactive: A549 20.7 µM | RXF 393 19.5 µM | SK-OV-3 > 100 µM | NCI-H23 38.8 µM | MDA-MB-231 21.4 µM | MOLT-4 12.2 µM | SNB-19 > 100 µM | HOP-62 42.8 µM | DU-145 > 100 µM | CAKI-1 10.7 µM | NCI-H226 2.58 µM | SK-MEL-28 93.3 µM | SK-MEL-5 15.3 µM | OVCAR-8 44.1 µM | A498 22.4 µM | M14 31.3 µM | NCI/ADR-RES 19.8 µM | MDA-MB-435 13.5 µM | NCI-H460 29.9 µM

COc1cc(/C=C2/SC(c3ccccc3)N(c3ccccc3Cl)C2=O)cc(OC)c1OC (stereo not given)
inactive: A549 36.3 µM | RXF 393 20.7 µM | SK-OV-3 19.8 µM | NCI-H23 22.8 µM | MDA-MB-231 58.3 µM | MOLT-4 28.6 µM | SNB-19 28.2 µM | HOP-62 33.6 µM | DU-145 45 µM | CAKI-1 55.7 µM | NCI-H226 30.1 µM | SK-MEL-28 30.5 µM | SK-MEL-5 15.4 µM | OVCAR-8 35.2 µM | A498 87.3 µM | M14 30.1 µM | NCI/ADR-RES 25.9 µM | MDA-MB-435 27.2 µM | NCI-H460 43.7 µM
31.6 µM: HCT-15

O=C1C=C(Nc2cccnc2)c2ccccc2C1=O
4.31 µM: HCT-15
inactive: A549 3.65 µM | RXF 393 13.1 µM | SK-OV-3 8.71 µM | NCI-H23 2.8 µM | MDA-MB-231 4.61 µM | MOLT-4 17.6 µM | SNB-19 7.1 µM | HOP-62 4.23 µM | DU-145 4.15 µM | CAKI-1 4.58 µM | NCI-H226 25.6 µM | SK-MEL-28 5.58 µM | SK-MEL-5 1.26 µM | OVCAR-8 7.55 µM | A498 9.08 µM | M14 1.91 µM | NCI/ADR-RES 4.25 µM | NCI-H460 3.41 µM
active: MDA-MB-435 0.348 µM

CCCCCCC(=O)OC[n+]1cccc(-c2c(COC(=O)NC(C)C)c(COC(=O)NC(C)C)c3n2CCC3)c1
inactive: A549 60 µM | RXF 393 20.4 µM | SK-OV-3 40.6 µM | NCI-H23 26.9 µM | MDA-MB-231 47.3 µM | MOLT-4 11.6 µM | SNB-19 90.6 µM | HOP-62 42.5 µM | DU-145 35.9 µM | CAKI-1 11 µM | NCI-H226 60.7 µM | SK-MEL-28 > 100 µM | SK-MEL-5 32.4 µM | OVCAR-8 34.4 µM | A498 23 µM | M14 39.2 µM | NCI/ADR-RES 32.4 µM | MDA-MB-435 70.8 µM | NCI-H460 14.5 µM
42.6 µM: HCT-15

CCCC(=O)Nc1cc(/C=C/C(=O)N2C[C@@H]3C[C@]34C2=CC(=O)c2[nH]cc(C)c24)n(C)c1
0.723 µM: HCT-15
active: A549 0.318 µM | RXF 393 0.0711 µM | SK-OV-3 0.975 µM | NCI-H23 0.0927 µM | MDA-MB-231 0.38 µM | MOLT-4 0.0257 µM | SNB-19 0.745 µM | HOP-62 0.769 µM | DU-145 0.0673 µM | CAKI-1 0.1 µM | NCI-H226 0.313 µM | SK-MEL-28 0.408 µM | SK-MEL-5 0.0748 µM | OVCAR-8 0.0533 µM | A498 0.236 µM | M14 0.297 µM | NCI/ADR-RES 0.778 µM | MDA-MB-435 0.285 µM | NCI-H460 0.221 µM
